Data on 43 compounds can be found in PubChem BioAssay (NCI).

Where “and” joins values, the source holds several entries; their conditions need not be identical. Equal values may be shown once.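 Following 48 hours of exposure in 96-well plates, responses at five concentrations were used to interpolate endpoints linearly. At the GI50, growth is halved. Definition used: TGI = concentration required for complete inhibition of growth.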 Where a SMILES comes first, the peptide text is derived from it. Bridges are numbered along the chain shown (N, C = ends). [ ]: non-standard residue; d: D form. ξ: configuration not given here. ξThr(3R) = C[C@@H](O)C(N)C(=O)O; S5 = C=CCCC[C@](C)(N)C(=O)O

The test system of this assay is MDA-MB-468 breast. As to the kind of experiment: NCI-60 cell line screen, 48 h.
Consider `CCN(CC)c1ccc2nc3c4ccccc4c(=O)cc-3n(-c3ccccc3)c2c1`, for which the GI50 was 0.333 µM and the TGI stood at 1.98 µM. On to `Cc1ccc(-c2nc(N3CCNCC3)c3oc(-c4ccccc4)nc3n2)cc1`, for which the GI50 is 1.81 µM and the TGI worked out at 3.8 µM. In the same order, the values of `C[C@@H](NC(=O)c1ncnc(N)c1Cl)c1ncc(C(=O)Nc2cc(C(F)(F)F)c(Cl)cn2)s1` are 19.1 µM and 52.5 µM. Turning to `COc1ccc(-c2[nH]nc(N)c2-c2cc(OC)c3c(c2)OCO3)cc1`, the GI50 is 1.86 µM and the TGI was 6.28 µM. The matching figures for `COc1cc(/C=C/C(=O)N2CCC=CC2=O)cc(OC)c1OC`: 1.73 µM and 4.7 µM. In the same order, the values of `CCN(CC)CCC(CNc1ccnc2cc(Cl)ccc12)c1ccccc1` (stereo not given) are 2.16 µM and 5.69 µM.

For `Cc1ccc(/C=C/c2c(C(=O)/C=C/c3ccc(Cl)cc3)c(C)nc3ccccc23)cc1`, the GI50 was 2.01 µM and the TGI came to 3.82 µM. The matching figures for `NC(=O)CC1(O)C=C(Br)C(=O)C(Br)=C1`: 1.75 µM and 7.22 µM. Take `c1ccc(-c2n(Cc3ccc4ccccc4c3)cc[n+]2Cc2ccc3ccccc3c2)cc1`: the GI50 is 0.245 µM and the TGI was 1.18 µM. In the same order, the values of `Cc1nc(-c2cnc(NC(C)C)n(C)c2=O)ccc1Oc1ccnc(-c2cnn(C)c2)c1` are 3.01 µM and 73.9 µM.

In the case of `CC(c1ccccc1)[C@@H](C(=O)Nc1ccc(I)cc1F)N1C(=O)N[C@H](c2ccc(OC[C@H](O)CO)cc2)C1=O` (stereo not given in full), the GI50 is 11.5 µM and the TGI is greater than 25 µM. The matching figures for `CC(=O)N[C@H](C(=O)N[C@@H](CCCNC(=N)N)C(=O)N[C@@H](CCCCN)C(=O)N[C@@H](CCCNC(=N)N)C(=O)NC(C(=O)N[C@@H](CC(C)C)C(=O)N[C@@H](CCCNC(=N)N)C(=O)N[C@@]1(C)CCC/C=C\CCC[C@@](C)(C(=O)N[C@@H](CCCNC(=N)N)C(=O)N[C@@H](CCC(=O)O)C(=O)N[C@@H](CC(C)C)C(=O)N[C@H](C(=O)N[C@@H](CCC(=O)O)C(N)=O)C(C)C)NC(=O)[C@H](CCC(N)=O)NC(=O)[C@H](CC(C)C)NC(=O)[C@H](CC(C)C)NC1=O)[C@@H](C)O)C(C)C` (stereo partly drawn) (Ac-VRKR[ξThr(3R)]LR[S5]LLQ[S5]RELVE-NH2; staple (Z) 8-12): 7.65 µM and 18.4 µM.

Take `C=C1C(=O)O[C@H]2[C@H]1CC/C(Cn1cc(-c3cccc(Cl)c3)nn1)=C\CC[C@@]1(C)O[C@@H]21`: the GI50 is 0.569 µM and the TGI stood at 2.14 µM. In the same order, the values of `COc1ccc2nc3cc([N+](=O)[O-])ccc3c(NNc3ccccc3)c2c1` are 0.616 µM and 5.37 µM.

In the case of `O=C(Nc1cccc(-n2cc(-c3ccncc3)c(-c3ccc(O)c(Cl)c3)n2)c1)c1cc(C(F)(F)F)cc(C(F)(F)F)c1`, the GI50 was 3.8 µM and the TGI was 46 µM.

Consider `COc1ccc(Cl)cc1Nc1nc(C(F)(F)F)ccc1C(=O)N/N=C/c1cccnc1`, for which the GI50 was 0.797 µM and the TGI was 4.66 µM. Regarding `O=C1c2cccnc2C(=O)c2c1c(C(=O)NCCn1ccnc1)c1ccccn21`, the GI50 is 2.34 µM and the TGI is 5.61 µM. In the case of `COc1ccc(Cn2cc3c(c2)-c2oncc2CC3)cc1OC`, the GI50 is 0.0854 µM and the TGI came out at 0.254 µM. `COc1cc(/C=C/C(=O)/C=C/c2cc3ccc(Cl)cc3n(Cc3ccccc3)c2=O)ccc1O`: the GI50 is 1.65 µM and the TGI turned out to be 5.2 µM. The matching figures for `CCOC(=O)/C(C#N)=C1\SS/C(=C(/C#N)C(=O)OCC)S1`: 15.6 µM and 33 µM. Regarding `COc1ccccc1/C=C/C1=C(C)CCC(c2ccccc2OC)C1C` (stereo not given), the GI50 was 0.118 µM and the TGI was greater than 100 µM.

For `CC(C)(C)NC(=O)[C@H]1CC[C@H]2[C@@H]3CC[C@H]4NC(=O)C=C[C@]4(C)[C@H]3CC[C@]12C`, the GI50 was 63 µM and > 100 µM; the TGI is greater than 100 µM. Consider `O=C(Cc1csc2nc(-c3ccc(Cl)cc3)cn12)N/N=C/c1ccccc1O`, for which the GI50 was 1.57 µM and the TGI is 4.92 µM. `COc1cccc(C2=C(c3cn(C)c4cc(F)ccc34)C(=O)NC2=O)c1`: the GI50 was 13.5 µM and the TGI was greater than 25 µM. The matching figures for `COc1ccc(-c2nn(-c3ccc(NC(=O)c4cc(Cl)cc(Cl)c4)cc3)cc2-c2ccncc2)cc1Cl`: 7.06 µM and greater than 100 µM.

As to `O=C(Nc1ccc(-n2ccc3c(NC(=O)c4ccccc4)nccc32)cc1)Nc1cccc(C(F)(F)F)c1`, the GI50 is 2.47 µM and the TGI was found to be 10.5 µM. In the same order, the values of `CN1CCN(c2ccc(NC(=O)c3cncnc3Nc3ccc(OCc4cccc(F)c4)c(Cl)c3)cc2)CC1` are 1.71 µM and 8.75 µM. In the case of `Clc1ccc(Nc2nc(Nc3ccccc3)nc(Nc3ccc(-c4cc(-c5ccc(Cl)cc5)on4)cc3)n2)cc1`, the GI50 is 26 µM and the TGI was greater than 100 µM. In the case of `Nc1nnnc2nc[nH]c12`, the GI50 was 0.369 µM.

In the case of `CCOc1ccc2c(c1)CN(Cc1ccc(Cl)cc1)CO2`, the GI50 was 16.3 µM and the TGI was 34.9 µM. In the case of `O=C1c2ccccc2C(=O)c2c1ccc1c(=O)n(-c3ccccc3C(F)(F)F)nnc21`, the GI50 was 1.43 µM and the TGI came to 3.71 µM.

As to `Nc1cc(C(F)(F)F)c(-c2cc(N3CCOCC3)nc(N3CCOCC3)n2)cn1`, the GI50 was 0.329 µM and 0.216 µM; the TGI was 2.5 µM and 1.41 µM. As to `CCCCCCCCCCCCCCCCCCOc1ccccc1CC(=O)OCC[N+](CC)(CC)CC`, the GI50 is 0.904 µM and the TGI is 2.15 µM. Take `CC[C@]1(O)CC2CN(CCc3c([nH]c4ccccc34)[C@@](C(=O)OC)(c3cc4c(cc3OC)N(C=O)[C@H]3[C@@](O)(C(=O)OC)[C@H](OC(C)=O)[C@]5(CC)C=CCN6CC[C@]43[C@@H]65)C2)C1` (stereo not given in full): the GI50 was less than 0.005 µM and the TGI is greater than 28.5 µM. For the compound `CCOC(=O)c1c(NC(=O)c2ccccc2)sc2c3c(ccc12)OCN(C)C3`, the GI50 is 1.52 µM and the TGI stood at 3.14 µM.

In the case of `NC1=NC(=O)/C(=C/c2ccc3ncccc3c2)S1`, the GI50 is greater than 17.1 µM and the TGI is greater than 25 µM. In the case of `O=c1c2ccccc2nc(-c2ccccc2Cl)n1-c1nnc(C(F)(F)F)s1`, the GI50 is 2.29 µM and the TGI came out at 7.81 µM. The matching figures for `Cc1ccc(Cl)cc1NC(=O)c1cc2ccccc2cc1O`: 1.31 µM and 7.25 µM.

With `NC(Cc1c[nH]c2ccc(F)cc12)C(=O)O` (stereo not given), the GI50 is 649 µM and the TGI was greater than 2500 µM. In the same order, the values of `COc1ccc(C(=O)O[C@H]2[C@H](O[C@H]3[C@@H](O)COC(O[C@H]4C[C@H]5[C@@H]6CC=C7C[C@@H](O)CC[C@]7(C)[C@H]6CC[C@]5(C)[C@H]4[C@H](C)C(=O)CCC(C)C)[C@@H]3OC(C)=O)OC[C@@H](O)[C@@H]2O)c(C)c1` (stereo not given in full) are 0.0104 µM and 4.89 µM. In the same order, the values of `OCc1ccc(N2CCc3cc(F)ccc3C2)cc1Cl` are 0.0101 µM and less than 0.0182 µM. In the same order, the values of `Clc1ccc2ncc(-c3cccc(NC4CNC4)n3)n2c1` are 4.86 µM and 20.5 µM. With `Cc1ccc(NC(=O)Nc2c(Cl)cccc2Cl)cn1`, the GI50 was 3.12 µM and the TGI was found to be 12.5 µM.
